What was measured:
Test in all cases: Kinome-wide inhibition profiling
Assay type in all cases: biochemical
[1] = biological target: T1, FER (Homo sapiens, UniProt P16591)
T1 construct: purchased Reaction Biology Corp
Description: (§1) In vitro CDK12/cyclinK assays for all compounds and in vitro kinome-wide inhibition profiling of 30d at 10 μM were performed by a CRO company (Reaction Biology Corp., San Diego, CA, USA).

[2] = biological target: T2, BMPR1A (Homo sapiens, UniProt P36894)
T2 construct: purchased Reaction Biology Corp
Description: as §1

[3] = biological target: T3, ALK (Homo sapiens, UniProt Q9UM73)
T3 construct: purchased Reaction Biology Corp
Description: as §1

[4] = biological target: T4, IKK-beta (Homo sapiens, UniProt O14920)
T4 construct: purchased Reaction Biology Corp
Description: as §1

[5] = biological target: T5, AKT3 (Homo sapiens, UniProt Q9Y243)
T5 construct: purchased Reaction Biology Corp
Description: as §1

[6] = biological target: T6, DYRK1A (Homo sapiens, UniProt Q13627)
T6 construct: purchased Reaction Biology Corp
Description: as §1

[7] = biological target: T7, PKCb2 (Homo sapiens, UniProt P05771)
T7 construct: purchased Reaction Biology Corp
Description: as §1

[8] = biological target: T8, PKCb1 (Homo sapiens, UniProt P05771)
T8 construct: purchased Reaction Biology Corp
Description: as §1

[9] = biological target: T9, FGFR1 (Homo sapiens, UniProt P11362)
T9 construct: purchased Reaction Biology Corp
Description: as §1

[10] = biological target: T10, LTK (Homo sapiens, UniProt P29376)
T10 construct: purchased Reaction Biology Corp
Description: as §1

[11] = biological target: T11, TTBK1 (Homo sapiens, UniProt Q5TCY1)
T11 construct: purchased Reaction Biology Corp
Description: as §1

[12] = biological target: T12, FLT4 (Homo sapiens, UniProt P35916)
T12 construct: purchased Reaction Biology Corp
Description: as §1

[13] = biological target: T13, AurkA (Homo sapiens, UniProt O14965)
T13 construct: purchased Reaction Biology Corp
Description: as §1

[14] = biological target: T14, PIM2 (Homo sapiens, UniProt Q9P1W9)
T14 construct: purchased Reaction Biology Corp
Description: as §1

[15] = biological target: T15, TAOK3 (Homo sapiens, UniProt Q9H2K8)
T15 construct: purchased Reaction Biology Corp
Description: as §1

[16] = biological target: T16, RSK4 (Homo sapiens, UniProt Q9UK32)
T16 construct: purchased Reaction Biology Corp
Description: as §1

[17] = biological target: T17, DYRK4 (Homo sapiens, UniProt Q9NR20)
T17 construct: purchased Reaction Biology Corp
Description: as §1

[18] = biological target: T18, MAPKAPK2 (Homo sapiens, UniProt P49137)
T18 construct: purchased Reaction Biology Corp
Description: as §1

[19] = biological target: T19, TAK1 (Homo sapiens, UniProt O43318)
T19 construct: purchased Reaction Biology Corp
Description: as §1

[20] = biological target: T20, NEK2 (Homo sapiens, UniProt P51955)
T20 construct: purchased Reaction Biology Corp
Description: as §1

[21] = biological target: T21, RPS6KA5(Kin.Dom.1-N-term) (Homo sapiens, UniProt O75582)
T21 construct: RPS6KA5(Kin.Dom.1-N-term); purchased Reaction Biology Corp
Description: as §1

[22] = biological target: T22, LOK (Homo sapiens, UniProt O94804)
T22 construct: purchased Reaction Biology Corp
Description: as §1

[23] = biological target: T23, PRKCE (Homo sapiens, UniProt Q02156)
T23 construct: purchased Reaction Biology Corp
Description: as §1

[24] = biological target: T24, JNK2 (Homo sapiens, UniProt P45984)
T24 construct: purchased Reaction Biology Corp
Description: as §1

[25] = biological target: T25, EPHA7 (Homo sapiens, UniProt Q15375)
T25 construct: purchased Reaction Biology Corp
Description: as §1

[26] = biological target: T26, MERTK (Homo sapiens, UniProt Q12866)
T26 construct: purchased Reaction Biology Corp
Description: as §1

[27] = biological target: T27, NEK1 (Homo sapiens, UniProt Q96PY6)
T27 construct: purchased Reaction Biology Corp
Description: as §1

[28] = biological target: T28, DRAK1 (Homo sapiens, UniProt Q9UEE5)
T28 construct: purchased Reaction Biology Corp
Description: as §1

[29] = biological target: T29, PRKCG (Homo sapiens, UniProt P05129)
T29 construct: purchased Reaction Biology Corp
Description: as §1

[30] = biological target: T30, CSNK1G1 (Homo sapiens, UniProt Q9HCP0)
T30 construct: purchased Reaction Biology Corp
Description: as §1

[31] = biological target: T31, MASTL (Homo sapiens, UniProt Q96GX5)
T31 construct: purchased Reaction Biology Corp
Description: as §1

[32] = biological target: T32, MAK (Homo sapiens, UniProt P20794)
T32 construct: purchased Reaction Biology Corp
Description: as §1

[33] = biological target: T33, TIE2 (Homo sapiens, UniProt Q02763)
T33 construct: purchased Reaction Biology Corp
Description: as §1

[34] = biological target: T34, ROCK2 (Homo sapiens, UniProt O75116)
T34 construct: purchased Reaction Biology Corp
Description: as §1

[35] = biological target: T35, NEK11 (Homo sapiens, UniProt Q8NG66)
T35 construct: purchased Reaction Biology Corp
Description: as §1

[36] = biological target: T36, CDK7/cyclinH (Homo sapiens, UniProt P50613)
T36 construct: purchased Reaction Biology Corp
Description: as §1

[37] = biological target: T37, PRKD1 (Homo sapiens, UniProt Q15139)
T37 construct: purchased Reaction Biology Corp
Description: as §1

[38] = biological target: T38, BLK (Homo sapiens, UniProt P51451)
T38 construct: purchased Reaction Biology Corp
Description: as §1

[39] = biological target: T39, CDK4/cyclinD3 (Homo sapiens, UniProt P11802)
T39 construct: purchased Reaction Biology Corp
Description: as §1

[40] = biological target: T40, PYK2 (Homo sapiens, UniProt Q14289)
T40 construct: purchased Reaction Biology Corp
Description: as §1

[41] = biological target: T41, ACK1 (Homo sapiens, UniProt Q07912)
T41 construct: purchased Reaction Biology Corp
Description: as §1

[42] = biological target: T42, MEK2 (Homo sapiens, UniProt P36507)
T42 construct: purchased Reaction Biology Corp
Description: as §1

[43] = biological target: T43, IRAK1 (Homo sapiens, UniProt P51617)
T43 construct: purchased Reaction Biology Corp
Description: as §1

T32 sequence (P20794 whole entry): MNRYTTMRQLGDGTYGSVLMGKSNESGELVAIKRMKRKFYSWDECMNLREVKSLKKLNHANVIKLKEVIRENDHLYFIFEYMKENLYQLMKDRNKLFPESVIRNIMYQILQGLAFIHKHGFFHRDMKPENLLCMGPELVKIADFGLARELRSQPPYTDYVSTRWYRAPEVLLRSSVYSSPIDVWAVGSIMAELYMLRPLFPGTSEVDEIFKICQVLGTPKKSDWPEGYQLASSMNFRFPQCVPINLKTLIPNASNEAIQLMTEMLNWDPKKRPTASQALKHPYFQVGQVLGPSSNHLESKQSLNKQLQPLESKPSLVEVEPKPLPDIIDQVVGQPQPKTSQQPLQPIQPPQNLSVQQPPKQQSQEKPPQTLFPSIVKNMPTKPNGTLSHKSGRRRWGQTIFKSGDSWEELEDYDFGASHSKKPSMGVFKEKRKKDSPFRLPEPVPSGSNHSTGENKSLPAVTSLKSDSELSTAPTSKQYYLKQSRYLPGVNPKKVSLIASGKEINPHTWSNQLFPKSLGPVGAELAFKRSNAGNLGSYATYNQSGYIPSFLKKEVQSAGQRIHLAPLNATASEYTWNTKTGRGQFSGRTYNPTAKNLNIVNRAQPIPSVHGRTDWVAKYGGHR
T36 sequence (P50613 whole entry): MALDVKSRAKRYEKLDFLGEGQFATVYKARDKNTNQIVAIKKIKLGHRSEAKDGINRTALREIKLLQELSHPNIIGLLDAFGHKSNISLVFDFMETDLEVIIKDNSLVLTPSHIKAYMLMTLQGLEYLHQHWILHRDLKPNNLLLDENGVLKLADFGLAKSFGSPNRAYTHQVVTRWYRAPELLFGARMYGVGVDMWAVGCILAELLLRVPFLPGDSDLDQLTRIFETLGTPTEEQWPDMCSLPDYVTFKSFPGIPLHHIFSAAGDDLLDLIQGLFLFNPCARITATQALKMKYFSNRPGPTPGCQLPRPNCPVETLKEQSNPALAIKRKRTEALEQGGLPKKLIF
T36 sequence (P51946 whole entry partner): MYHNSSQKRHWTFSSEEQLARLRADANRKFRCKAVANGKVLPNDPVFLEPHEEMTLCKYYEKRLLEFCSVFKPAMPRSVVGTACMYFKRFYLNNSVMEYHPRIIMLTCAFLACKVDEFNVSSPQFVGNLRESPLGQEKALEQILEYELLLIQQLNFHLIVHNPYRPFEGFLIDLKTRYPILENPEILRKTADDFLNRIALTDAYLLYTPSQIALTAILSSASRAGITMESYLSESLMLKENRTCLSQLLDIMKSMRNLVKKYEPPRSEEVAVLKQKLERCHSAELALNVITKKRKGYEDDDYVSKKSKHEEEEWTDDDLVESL
T36 sequence (P51948 whole entry partner): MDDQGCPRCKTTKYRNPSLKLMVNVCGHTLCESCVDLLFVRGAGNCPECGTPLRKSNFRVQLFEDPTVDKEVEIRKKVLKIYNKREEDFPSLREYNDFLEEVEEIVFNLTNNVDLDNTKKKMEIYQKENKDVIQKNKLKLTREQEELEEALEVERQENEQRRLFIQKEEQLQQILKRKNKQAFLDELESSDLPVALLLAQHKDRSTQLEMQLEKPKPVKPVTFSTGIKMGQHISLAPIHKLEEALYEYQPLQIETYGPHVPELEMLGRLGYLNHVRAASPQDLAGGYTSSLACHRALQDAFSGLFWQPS
T37 sequence (Q15139 whole entry): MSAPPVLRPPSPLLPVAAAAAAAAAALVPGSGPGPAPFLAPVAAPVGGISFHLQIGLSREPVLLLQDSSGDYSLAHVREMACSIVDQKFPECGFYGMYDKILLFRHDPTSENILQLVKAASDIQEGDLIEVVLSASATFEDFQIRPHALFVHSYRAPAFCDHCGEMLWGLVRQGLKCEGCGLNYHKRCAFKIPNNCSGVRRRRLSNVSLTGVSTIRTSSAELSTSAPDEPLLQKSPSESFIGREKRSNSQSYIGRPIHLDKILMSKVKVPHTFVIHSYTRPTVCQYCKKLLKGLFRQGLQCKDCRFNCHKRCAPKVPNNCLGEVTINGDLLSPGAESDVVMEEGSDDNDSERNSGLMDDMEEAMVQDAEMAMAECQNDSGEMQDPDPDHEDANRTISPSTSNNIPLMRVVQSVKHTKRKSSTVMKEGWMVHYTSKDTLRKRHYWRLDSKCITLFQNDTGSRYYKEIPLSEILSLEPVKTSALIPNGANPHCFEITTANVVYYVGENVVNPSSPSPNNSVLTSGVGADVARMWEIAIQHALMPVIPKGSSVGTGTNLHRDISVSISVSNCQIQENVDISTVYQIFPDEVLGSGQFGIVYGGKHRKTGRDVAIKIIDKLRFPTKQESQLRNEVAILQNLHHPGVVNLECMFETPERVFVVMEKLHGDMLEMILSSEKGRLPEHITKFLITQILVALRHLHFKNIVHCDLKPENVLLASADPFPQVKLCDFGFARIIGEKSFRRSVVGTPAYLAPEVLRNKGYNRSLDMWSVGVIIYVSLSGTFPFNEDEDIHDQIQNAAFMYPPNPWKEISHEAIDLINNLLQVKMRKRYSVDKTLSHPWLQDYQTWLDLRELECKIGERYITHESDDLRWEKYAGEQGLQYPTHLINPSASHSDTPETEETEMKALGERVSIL
T38 sequence (P51451 whole entry): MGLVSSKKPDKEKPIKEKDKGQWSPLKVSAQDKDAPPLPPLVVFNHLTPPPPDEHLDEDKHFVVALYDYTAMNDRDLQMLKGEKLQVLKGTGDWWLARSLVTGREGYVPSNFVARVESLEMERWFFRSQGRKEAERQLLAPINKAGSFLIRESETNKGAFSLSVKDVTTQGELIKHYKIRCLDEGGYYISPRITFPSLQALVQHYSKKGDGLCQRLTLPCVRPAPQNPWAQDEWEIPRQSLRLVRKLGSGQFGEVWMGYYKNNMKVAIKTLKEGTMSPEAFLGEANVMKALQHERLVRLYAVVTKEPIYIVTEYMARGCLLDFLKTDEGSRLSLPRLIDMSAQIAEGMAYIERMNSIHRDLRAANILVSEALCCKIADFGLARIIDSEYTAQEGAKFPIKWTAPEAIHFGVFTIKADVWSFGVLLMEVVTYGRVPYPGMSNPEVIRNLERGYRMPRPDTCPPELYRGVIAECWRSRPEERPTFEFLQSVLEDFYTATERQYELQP
T33 sequence (Q02763 23-1124): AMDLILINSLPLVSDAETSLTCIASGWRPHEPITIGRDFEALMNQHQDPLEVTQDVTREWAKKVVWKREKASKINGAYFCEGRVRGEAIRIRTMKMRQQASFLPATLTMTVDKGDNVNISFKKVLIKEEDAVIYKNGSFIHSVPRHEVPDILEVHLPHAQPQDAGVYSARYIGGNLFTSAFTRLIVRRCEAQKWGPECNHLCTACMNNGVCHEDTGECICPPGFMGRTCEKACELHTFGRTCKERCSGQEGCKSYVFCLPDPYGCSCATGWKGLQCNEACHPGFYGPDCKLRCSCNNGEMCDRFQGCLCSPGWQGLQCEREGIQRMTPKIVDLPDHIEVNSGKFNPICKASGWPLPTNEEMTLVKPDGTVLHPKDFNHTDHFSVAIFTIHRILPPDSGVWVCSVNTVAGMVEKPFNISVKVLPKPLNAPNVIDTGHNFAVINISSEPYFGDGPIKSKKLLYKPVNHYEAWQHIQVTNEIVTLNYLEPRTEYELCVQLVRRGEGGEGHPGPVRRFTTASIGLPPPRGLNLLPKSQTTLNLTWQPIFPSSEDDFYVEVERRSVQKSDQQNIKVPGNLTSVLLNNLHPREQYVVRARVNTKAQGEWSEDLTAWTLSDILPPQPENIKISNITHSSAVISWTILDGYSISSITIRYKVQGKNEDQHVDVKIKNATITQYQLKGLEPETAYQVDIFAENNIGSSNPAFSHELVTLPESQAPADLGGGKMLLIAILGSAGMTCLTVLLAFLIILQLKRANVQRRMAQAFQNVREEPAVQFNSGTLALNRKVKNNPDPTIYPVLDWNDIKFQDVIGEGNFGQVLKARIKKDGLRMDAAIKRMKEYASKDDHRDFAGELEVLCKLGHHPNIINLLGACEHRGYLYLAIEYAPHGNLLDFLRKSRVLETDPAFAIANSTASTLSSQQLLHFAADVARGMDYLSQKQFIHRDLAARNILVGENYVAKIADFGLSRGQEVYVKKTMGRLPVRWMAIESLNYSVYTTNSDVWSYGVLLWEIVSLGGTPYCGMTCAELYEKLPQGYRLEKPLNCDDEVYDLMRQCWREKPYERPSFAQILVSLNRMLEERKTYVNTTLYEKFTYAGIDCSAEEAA

In the case of `CCn1cnc2c(NCc3ccc(-c4ccccn4)nc3)nc(-c3ccc(N)nc3)nc21` [Compound 30d, N-([2,2′-Bipyridin]-5-ylmethyl)-2-(6-aminopyridin-3-yl)-9-ethyl-9H-purin-6-amine], the remaining activity at 10 µM [1] is reported as 52.3%, the remaining activity at 10 µM [2] is reported as 126% and the remaining activity at 10 µM [3] is reported as 59.7%. For the same compound, the remaining activity at 10 µM [4] was 83.7%, the remaining activity at 10 µM [5] was 96.1% and the inhibition at 10 µM [6] was > 95%. The remaining activity at 10 µM [6] was 3.9%, the remaining activity at 10 µM [7] was 39.6% and the remaining activity at 10 µM [8] was 89.9%. The remaining activity at 10 µM [9] was 28.8%, the remaining activity at 10 µM [10] was 73.6% and the remaining activity at 10 µM [11] was 108%. For the same compound, the remaining activity at 10 µM [12] was 10%, the remaining activity at 10 µM [13] was 33.4% and the remaining activity at 10 µM [14] was 93.8%. For the same compound, the remaining activity at 10 µM [15] was 23.1%, the remaining activity at 10 µM [16] was 54.2% and the remaining activity at 10 µM [17] was 89.3%. The remaining activity at 10 µM [18] was 102%, the remaining activity at 10 µM [19] was 98.2% and the remaining activity at 10 µM [20] was 91.1%. For the same compound, the remaining activity at 10 µM [21] was 80.5%, the remaining activity at 10 µM [22] was 41.4% and the remaining activity at 10 µM [23] was 94.1%. The remaining activity at 10 µM [24] was 61.7%, the remaining activity at 10 µM [25] was 31.3% and the remaining activity at 10 µM [26] was 71%. The remaining activity at 10 µM [27] was 92.3%, the remaining activity at 10 µM [28] was 79.3% and the remaining activity at 10 µM [29] was 49.6%. The remaining activity at 10 µM [30] was 29.8%, the remaining activity at 10 µM [31] was 103% and the inhibition at 10 µM [32] was > 95%. The remaining activity at 10 µM [32] was 3.3%, the remaining activity at 10 µM [33] was 34.8% and the remaining activity at 10 µM [34] was 92.3%. The remaining activity at 10 µM [35] was 94.3%, the inhibition at 10 µM [36] was > 95% and the remaining activity at 10 µM [36] was 3.8%. It also gave a remaining activity at 10 µM [37] of 70.3%, a remaining activity at 10 µM [38] of 66.8% and a remaining activity at 10 µM [39] of 28.6%. It also gave a remaining activity at 10 µM [40] of 47.5%, a remaining activity at 10 µM [41] of 13.7% and a remaining activity at 10 µM [42] of 176%. For the same compound, the remaining activity at 10 µM [43] was 79%.
